Format in all cases: in vivo
For series [1], the system named is Beet Armyworm (Spodoptera exigua, LAPHEG). The experiment in a line: Bioassay on Beet Armyworm (BAW), 128-well diet tray assay. Particulars: 168 h, 50 μg/cm^2 on artificial diet, second instar larvae, five to seven days, 25° C., read-out: BAW % Control (or Mortality) rating. The procedure:
(§1) Example A: Bioassays on Beet Armyworm (Spodoptera exigua, LAPHEG) (“BAW”), Corn Earworm (Helicoverpa zea, HELIZE) (“CEW”), and Cabbage Looper (Trichoplusia ni, TRIPNI) (“CL”)
(§2) Certain molecules disclosed in this document were tested against BAW, CEW, and CL using procedures described in the following examples. In the reporting of the results, the “BAW, CEW, & CL Rating Table” was used (See Table Section).
Bioassays on BAW were conducted using a 128-well diet tray assay. one to five second instar BAW larvae were placed in each well (3 mL) of the diet tray that had been previously filled with 1 mL of artificial diet to which 50 μg/cm^2 of the test molecule (dissolved in 50 μL of 90:10 acetone-water mixture) had been applied (to each of eight wells) and then allowed to dry. Trays were covered with a clear self-adhesive cover and held at 25° C., 14:10 light-dark for five to seven days. Percent mortality was recorded for the larvae in each well; activity in the eight wells was then averaged. The results are indicated in the table entitled “Table ABC: Biological Results” (See Table Section).

Series [2] has as its system Cabbage Looper (Trichoplusia ni, TRIPNI). The experiment in a line: Bioassay on Cabbage Looper (CL), 128-well diet tray assay. Particulars: 168 h, 50 μg/cm^2 on artificial diet, second instar larvae, five to seven days, 25° C., read-out: CL % Control (or Mortality) rating. How it is done:
as §1, §2
Bioassays on CL were conducted using a 128-well diet tray assay. one to five second instar CL larvae were placed in each well (3 mL) of the diet tray that had been previously filled with 1 mL of artificial diet to which 50 μg/cm^2 of the test molecule (dissolved in 50 μL of 90:10 acetone-water mixture) had been applied (to each of eight wells) and then allowed to dry. Trays were covered with a clear self-adhesive cover and held at 25° C., 14:10 light-dark for five to seven days. Percent mortality was recorded for the larvae in each well; activity in the eight wells was then averaged. The results are indicated in the table entitled “Table ABC: Biological Results” (See Table Section).

The subject of series [3] is Corn Earworm (Helicoverpa zea, HELIZE). The experiment in a line: Bioassay on Corn Earworm (CEW), 128-well diet tray assay. The following applies: 168 h, 50 μg/cm^2 on artificial diet, second instar larvae, five to seven days, 25° C., read-out: CEW % Control (or Mortality) rating. The procedure:
as §1, §2
Bioassays on CEW were conducted using a 128-well diet tray assay. one to five second instar CEW larvae were placed in each well (3 mL) of the diet tray that had been previously filled with 1 mL of artificial diet to which 50 μg/cm^2 of the test molecule (dissolved in 50 μL of 90:10 acetone-water mixture) had been applied (to each of eight wells) and then allowed to dry. Trays were covered with a clear self-adhesive cover, and held at 25° C., 14:10 light-dark for five to seven days. Percent mortality was recorded for the larvae in each well; activity in the eight wells was then averaged. The results are indicated in the table entitled “Table ABC: Biological Results” (See Table Section).

Series [4] has as its system Yellow Fever Mosquito (Aedes aegypti, AEDSAE). Description: Bioassay on Yellow Fever Mosquito (YFM) larvae, 96-well plate. Particulars: about 1 day-old larvae, 4000 ppm DMSO master plate diluted, graded after 3 days. The procedure:
Example C: Bioassays on Yellow Fever Mosquito (Aedes aegypti, AEDSAE) (“YFM”)
Certain molecules disclosed in this document were tested against YFM using procedures described in the following paragraph. In the reporting of the results, the “YFM Rating Table” was used (See Table Section).
Master plates containing 400 μg of a molecule dissolved in 100 μL of dimethyl sulfoxide (DMSO) (equivalent to a 4000 ppm solution) are used. A master plate of assembled molecules contains 15 μL per well. To this plate, 135 μL of a 90:10 water:acetone mixture is added to each well. A robot (Biomek® NXP Laboratory Automation Workstation) is programmed to dispense 15 μL aspirations from the master plate into an empty 96-well shallow plate (“daughter” plate). There are 6 reps (“daughter” plates) created per master. The created daughter plates are then immediately infested with YFM larvae.
The day before plates are to be treated, mosquito eggs are placed in Millipore water containing liver powder to begin hatching (4 g. into 400 mL). After the daughter plates are created using the robot, they are infested with 220 μL of the liver powder/larval mosquito mixture (about 1 day-old larvae). After plates are infested with mosquito larvae, a non-evaporative lid is used to cover the plate to reduce drying. Plates are held at room temperature for 3 days prior to grading. After 3 days, each well is observed and scored based on mortality. The results are indicated in the table entitled “Table ABC: Biological Results” (See Table Section).

Each structure is given as a SMILES string.

A word on the mortality: it is the share of the test organisms that died. As to `O=C(Nc1ccc(-c2ncn(-c3ccc(OC(F)(F)F)cc3)n2)cc1)Nc1nccn1-c1ccccn1` [F31, 1-(1-(Pyridin-2-yl)-1H-imidazol-2-yl)-3-(4-(1-(4-(trifluoromethoxy)phenyl)-1H-1,2,4-triazol-3-yl)phenyl)urea], the mortality at 50 µg/cm2 in series [1], in series [2] and in series [3] was 50 to 100% throughout.
`O=C(Nc1ccc(-c2ncn(-c3ccc(OC(F)(F)F)cc3)n2)cc1)Nc1nccn1-c1ccncc1` [F33, 1-(1-(Pyridin-4-yl)-1H-imidazol-2-yl)-3-(4-(1-(4-(trifluoromethoxy)phenyl)-1H-1,2,4-triazol-3-yl)phenyl)urea]: the mortality at 50 µg/cm2 in series [1], in series [2] and in series [3] was 50 to 100% in each case.
Regarding `CC(C)c1ccccc1-n1ccnc1NC(=O)Nc1ccc(-c2ncn(-c3ccc(OC(F)(F)C(F)(F)F)cc3)n2)cc1` [F34, 1-(1-(2-isopropylphenyl)-1H-imidazol-2-yl)-3-(4-(1-(4-(perfluoroethoxy)phenyl)-1H-1,2,4-triazol-3-yl)phenyl)urea], the mortality at 50 µg/cm2 in series [1], in series [2] and in series [3] was 50 to 100% throughout. The “YFM % Control (or Mortality) rating” value in series [4] is “D (No activity noticed in this bioassay)”.
Turning to `O=C(Nc1ccc(-c2ncn(-c3ccc(OC(F)(F)C(F)(F)F)cc3)n2)cc1)Nc1nccn1-c1cccc(Cl)c1` [F35, 1-(1-(3-Chlorophenyl)-1H-imidazol-2-yl)-3-(4-(1-(4-(perfluoroethoxy)phenyl)-1H-1,2,4-triazol-3-yl)phenyl)urea], the mortality at 50 µg/cm2 in series [1], in series [2] and in series [3] was 50 to 100% throughout. The “YFM % Control (or Mortality) rating” value in series [4] was “D (No activity noticed in this bioassay)”.
On to `Cc1ccc(-c2nonc2NC(=O)Nc2ccc(-c3ncn(-c4ccc(OC(F)(F)F)cc4)n3)cc2)c(C)c1` [F36, 1-(4-(2,4-Dimethylphenyl)-1,2,5-oxadiazol-3-yl)-3-(4-(1-(4-(trifluoromethoxy)phenyl)-1H-1,2,4-triazol-3-yl)phenyl)urea], for which the mortality at 50 µg/cm2 in series [1], in series [2] and in series [3] was 50 to 100% each time. For the same compound, the “YFM % Control (or Mortality) rating” value in series [4] is reported as “A (80-100)”.
Consider `O=C(Nc1ccc(-c2ncn(-c3ccc(OC(F)(F)F)cc3)n2)cc1)Nc1nonc1-c1ccccc1` [F37, 1-(4-Phenyl-1,2,5-oxadiazol-3-yl)-3-(4-(1-(4-(trifluoromethoxy)phenyl)-1H-1,2,4-triazol-3-yl)phenyl)urea], for which the mortality at 50 µg/cm2 in series [1], in series [2] and in series [3] was 50 to 100% throughout. In addition, the “YFM % Control (or Mortality) rating” value in series [4] is “A (80-100)”.
`COc1ccccc1-c1nonc1NC(=O)Nc1ccc(-c2ncn(-c3ccc(OC(F)(F)F)cc3)n2)cc1` [F38, 1-(4-(2-Methoxyphenyl)-1,2,5-oxadiazol-3-yl)-3-(4-(1-(4-(trifluoromethoxy)phenyl)-1H-1,2,4-triazol-3-yl)phenyl)urea]: the mortality at 50 µg/cm2 in series [1], in series [2] and in series [3] was 50 to 100% each time. Further, the “YFM % Control (or Mortality) rating” value in series [4] is “A (80-100)”.
Regarding `COc1ccc(-c2nonc2NC(=O)Nc2ccc(-c3ncn(-c4ccc(OC(F)(F)F)cc4)n3)cc2)cc1` [F39, 1-(4-(4-Methoxyphenyl)-1,2,5-oxadiazol-3-yl)-3-(4-(1-(4-(trifluoromethoxy)phenyl)-1H-1,2,4-triazol-3-yl)phenyl)urea], the figures for the mortality at 50 µg/cm2 in series [1], in series [2] and in series [3] were 0 to 50%, 50 to 100% and 50 to 100%, respectively. In addition, the “YFM % Control (or Mortality) rating” value in series [4] was “D (No activity noticed in this bioassay)”.
Take `Cc1cc(C)c(-c2nonc2NC(=O)Nc2ccc(-c3ncn(-c4ccc(OC(F)(F)F)cc4)n3)cc2)c(C)c1` [F40, 1-(4-Mesityl-1,2,5-oxadiazol-3-yl)-3-(4-(1-(4-(trifluoromethoxy)phenyl)-1H-1,2,4-triazol-3-yl)phenyl)urea]: the mortality at 50 µg/cm2 in series [1], in series [2] and in series [3] was 50 to 100% throughout. Also, the “YFM % Control (or Mortality) rating” value in series [4] is “B (More than 0-Less than 80)”.
As to `COc1cccc(-c2nonc2NC(=O)Nc2ccc(-c3ncn(-c4ccc(OC(F)(F)F)cc4)n3)cc2)c1` [F41, 1-(4-(3-Methoxyphenyl)-1,2,5-oxadiazol-3-yl)-3-(4-(1-(4-(trifluoromethoxy)phenyl)-1H-1,2,4-triazol-3-yl)phenyl)urea], the mortality at 50 µg/cm2 in series [1], in series [2] and in series [3] was 50 to 100% throughout. Besides, the “YFM % Control (or Mortality) rating” value in series [4] is on record as “B (More than 0-Less than 80)”.
With `O=C(Nc1ccc(-c2ncn(-c3ccc(OC(F)(F)F)cc3)n2)cc1)Nc1nonc1-c1c(Cl)cccc1Cl` [F42, 1-(4-(2,6-Dichlorophenyl)-1,2,5-oxadiazol-3-yl)-3-(4-(1-(4-(trifluoromethoxy)phenyl)-1H-1,2,4-triazol-3-yl)phenyl)urea], the mortality at 50 µg/cm2 in series [1], in series [2] and in series [3] was 50 to 100% in each case. Also, in series [4], the “YFM % Control (or Mortality) rating” value was “D (No activity noticed in this bioassay)”.
As for `Cc1cc(Cl)ccc1-c1nonc1NC(=O)Nc1ccc(-c2ncn(-c3ccc(OC(F)(F)F)cc3)n2)cc1` [F43, 1-(4-(4-Chloro-2-methylphenyl)-1,2,5-oxadiazol-3-yl)-3-(4-(1-(4-(trifluoromethoxy)phenyl)-1H-1,2,4-triazol-3-yl)phenyl)urea], the mortality at 50 µg/cm2 in series [1], in series [2] and in series [3] was 50 to 100% throughout. For the same compound, the “YFM % Control (or Mortality) rating” value in series [4] is listed as “A (80-100)”.
Regarding `CCc1ccccc1-c1nonc1NC(=O)Nc1ccc(-c2ncn(-c3ccc(OC(F)(F)F)cc3)n2)cc1` [F44, 1-(4-(2-Ethylphenyl)-1,2,5-oxadiazol-3-yl)-3-(4-(1-(4-(trifluoromethoxy)phenyl)-1H-1,2,4-triazol-3-yl)phenyl)urea], the mortality at 50 µg/cm2 in series [1], in series [2] and in series [3] was 50 to 100% each time. Moreover, the “YFM % Control (or Mortality) rating” value in series [4] is “D (No activity noticed in this bioassay)”.
`O=C(Nc1ccc(-c2ncn(-c3ccc(OC(F)(F)F)cc3)n2)cc1)Nc1nonc1-c1ccccc1OC(F)(F)F` [F45, 1-(4-(2-(Trifluoromethoxy)phenyl)-1,2,5-oxadiazol-3-yl)-3-(4-(1-(4-(trifluoromethoxy)phenyl)-1H-1,2,4-triazol-3-yl)phenyl)urea]: the mortality at 50 µg/cm2 in series [1], in series [2] and in series [3] was 50 to 100% in each case. Besides, the “YFM % Control (or Mortality) rating” value in series [4] is listed as “A (80-100)”.
As to `O=C(NCCc1ccc(-c2ncn(-c3ccc(OC(F)(F)F)cc3)n2)cc1)Nc1ncc(-c2ccccc2)o1` [F52, 1-(5-phenyloxazol-2-yl)-3-(4-(1-(4-(trifluoromethoxy)phenyl)-1H-1,2,4-triazol-3-yl)phenethyl)urea], the mortality at 50 µg/cm2 is 50 to 100% in series [1], 50 to 100% in series [2] and 0% in series [3].

The values above are taken from US10212936B2, “Molecules having pesticidal utility, and intermediates, compositions, and processes, related thereto” (priority 2014, dated 2019).
